Source: patent publication US9609868B2, “Alkoximino-substituted anthranilic acid diamides as pesticides” (BAYER CROPSCIENCE AKTIENGESELLSCHAFT, priority 2013, dated 2017)

Experiments:
[1] = log P by HPLC on reversed-phase column (C18), EEC directive 79/831 Annex V.A8; type: physicochemical; conditions: for log p: HPLC reversed-phase C18, 43° C., data refer to the E isomer
Procedure: The log P values reported in the tables and Preparation Examples above were determined in accordance with EEC directive 79/831 Annex V.A8 by HPLC (High Performance Liquid Chromatography) using a reversed-phase column (C18). Temperature 43° C. The calibration is effected with unbranched alkan-2-ones (having 3 to 16 carbon atoms), for which the log P values are known.

[2] = system: Myzus persicae; experiment: Myzus persicae - spray test (MYZUPE); type: in vivo; conditions: application rate 100 g/ha, Chinese cabbage leaf disks
How it was run: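 Chinese cabbage leaf disks carrying all stages of green peach aphid were sprayed with compound in acetone/DMF with emulsifier, diluted in water. After the chosen period, efficacy was scored as % aphids killed.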

[3] = system: Phaedon cochleariae; experiment: Phaedon cochleariae - spray test (PHAECO); type: in vivo; conditions: application rate 100 g/ha, Chinese cabbage leaf disks
How it was run: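 Active compound in acetone/dimethylformamide with alkylaryl polyglycol ether emulsifier was diluted with emulsifier-containing water to the test concentration and sprayed. After the set period, efficacy was scored as % larvae killed (100% = all beetle larvae dead, 0% = none).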

[4] = system: Spodoptera frugiperda; experiment: Spodoptera frugiperda - spray test (SPODFR); type: in vivo; conditions: application rate 100 g/ha, maize leaf disks
How it was run: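 Maize leaf disks sprayed with compound in acetone/DMF with alkylaryl polyglycol ether emulsifier, diluted in water to test concentration, then infested with armyworm caterpillars once dry. Efficacy given as % caterpillars killed (100% all, 0% none) after the chosen period.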

[5] = system: Tetranychus urticae; experiment: Tetranychus urticae - spray test, OP-resistant (TETRUR); type: in vivo; conditions: application rate 100 g/ha, bean leaf disks
Procedure: Tetranychus urticae—Spray Test, OP-Resistant (TETRUR)
Solvent: 78.0 parts by weight of acetone • • 1.5 parts by weight of dimethylformamide
Emulsifier: 0.5 parts by weight of alkylaryl polyglycol ether
To produce a suitable active compound preparation, 1 part by weight of active compound is mixed with the stated amounts of solvent and emulsifier, and the concentrate is diluted with emulsifier-containing water to the desired concentration.
Disks of bean leaves (Phaseolus vulgaris) infested with all stages of the greenhouse red spider mite (Tetranychus urticae) are sprayed with an active compound preparation of the desired concentration.
After the desired period of time, the efficacy in % is determined. 100% means that all the spider mites have been killed; 0% means that none of the spider mites have been killed.

[6] = system: Boophilus microplus; experiment: Boophilus microplus - injection test (BOOPMI Inj); type: in vivo; conditions: application rate 20 μg/animal, injection into engorged adult female cattle ticks
Procedure: Boophilus microplus—Injection Test (BOOPMI Inj)
(§1) Solvent: dimethyl sulfoxide
To produce a suitable preparation of active compound, 10 mg of active compound are mixed with 0.5 ml of solvent and the concentrate is diluted with solvent to the desired concentration.
1 μl of the active compound solution is injected into the abdomen of 5 engorged adult female cattle ticks (Boophilus microplus). The animals are transferred into dishes and kept in a climate-controlled room.
The activity is assessed after the desired time by laying of fertile eggs. Eggs which are not visibly fertile are stored in a climate-controlled cabinet until the larvae hatch after about 42 days. An efficacy of 100% means that none of the ticks has laid any fertile eggs; 0% means that all the eggs are fertile.

[7] = system: Lucilia cuprina; experiment: Lucilia cuprina test (LUCICU); type: in vivo; conditions: application rate 100 ppm
Procedure: Lucilia cuprina-Test (LUCICU)
as §1
To produce a suitable preparation of active compound, 10 mg of active compound are mixed with 0.5 ml of dimethyl sulfoxide, and the concentrate is diluted with water to the desired concentration.
About 20 L1 larvae of the Australian sheep blowfly (Lucilia cuprina) are transferred into a test vessel containing minced horsemeat and the active compound preparation of the desired concentration.
After the desired time, the kill in % is determined. 100% means that all the larvae have been killed; 0% means that no larvae have been killed.

CON=Cc1cc(C)c(NC(=O)c2cc(OC)nn2-c2ncccc2Cl)c(C(=O)NN(C)C(=O)OC)c1 (mixture of isomers) [A-43]
log p ([1]; Table A): 2.19 | efficacy (aphids killed) [2]: 100% | efficacy (beetle larvae killed) [3]: 100% | efficacy (caterpillars killed) [4]: 100% | efficacy (spider mites killed) [5]: 100%

CON=Cc1cc(C)c(NC(=O)c2cc(C(F)(F)F)nn2-c2ncccc2Cl)c(C(=O)NN(C)C(=O)OC)c1 (mixture of isomers) [A-46]
log p ([1]; Table A): 2.85 | efficacy (aphids killed) [2]: 90% | efficacy (beetle larvae killed) [3]: 100% | efficacy (caterpillars killed) [4]: 100% | efficacy (spider mites killed) [5]: 100%

CON=Cc1cc(C)c(NC(=O)c2cc(Br)nn2-c2ncccc2Cl)c(C(=O)NC2(C)CSC2)c1 (mixture of isomers) [B-01]
log p ([1]; Table B): 3.22 | efficacy (aphids killed) [2]: 90% | efficacy (beetle larvae killed) [3]: 100% | efficacy (caterpillars killed) [4]: 100% | efficacy (spider mites killed) [5]: 100%

CO/N=C/c1cc(C)c(NC(=O)c2cc(OCC(F)F)nn2-c2ncccc2Cl)c(C(=O)NN(C)C(=O)OC)c1 [A-01, Methyl 2-{2-({[1-(3-chloropyridin-2-yl)-3-(2,2-difluoroethoxy)-1H-pyrazol-5-yl]carbonyl}amino)-5-[(E)-(methoxyimino)methyl]-3-methylbenzoyl}-1-methylhydrazinecarboxylate]
chromatographic logP ([1]; log P): 2.58 | chromatographic logP ([1]; log p): 2.58 | efficacy (aphids killed) [2]: 90% | efficacy (beetle larvae killed) [3]: 100% | efficacy (caterpillars killed) [4]: 100% | efficacy (spider mites killed) [5]: 90%

CO/N=C/c1cc(C)c(NC(=O)c2cc(OC(F)F)nn2-c2ncccc2Cl)c(C(=O)NNC(=O)OC)c1 [A-02, Methyl 2-{2-({[1-(3-chloropyridin-2-yl)-3-(difluoromethoxy)-1H-pyrazol-5-yl]carbonyl}amino)-5-[(E)-(methoxyimino)methyl]-3-methylbenzoyl}hydrazinecarboxylate]
chromatographic logP ([1]; log P): 2.28 | chromatographic logP ([1]; log p): 2.38 | efficacy (aphids killed) [2]: 90% | efficacy (beetle larvae killed) [3]: 100% | efficacy (caterpillars killed) [4]: 100% | efficacy (spider mites killed) [5]: 90%

CON=Cc1cc(C)c(NC(=O)c2cc(C(F)(F)F)nn2-c2ncccc2Cl)c(C(=O)NNC(=O)OC)c1 [A-04]
log p ([1]; Table A): 2.65 | efficacy (no fertile eggs laid) [6]: 100% | efficacy (kill of L1 larvae) [7]: 100% | efficacy (aphids killed) [2]: 100% | efficacy (beetle larvae killed) [3]: 100% | efficacy (caterpillars killed) [4]: 100%

CON=Cc1cc(C)c(NC(=O)c2cc(C(F)(F)F)nn2-c2ncccc2Cl)c(C(=O)NNC(=O)Oc2ccccc2)c1 [A-19]
log p ([1]; Table A): 3.02 | efficacy (no fertile eggs laid) [6]: 95% | efficacy (kill of L1 larvae) [7]: 100% | efficacy (beetle larvae killed) [3]: 100% | efficacy (caterpillars killed) [4]: 100% | efficacy (spider mites killed) [5]: 90%

CON=Cc1cc(C)c(NC(=O)c2cc(C(F)(F)F)nn2-c2ncccc2Cl)c(C(=O)N(C)NC(=O)Oc2ccccc2)c1 [A-26]
log p ([1]; Table A): 3.72 | efficacy (caterpillars killed) [4]: 100% | efficacy (spider mites killed) [5]: 90%

C#CCOC(=O)NN(C)C(=O)c1cc(C=NOC)cc(C)c1NC(=O)c1cc(C(F)(F)F)nn1-c1ncccc1Cl [A-29]
log p ([1]; Table A): 3.16 | efficacy (no fertile eggs laid) [6]: 95% | efficacy (kill of L1 larvae) [7]: 100% | efficacy (aphids killed) [2]: 90% | efficacy (caterpillars killed) [4]: 100% | efficacy (spider mites killed) [5]: 90%

CNC(=O)c1cc(C=NOC)cc(C)c1NC(=O)c1cc(OCC(F)F)nn1-c1ncccc1Cl [C-20]
log p ([1]; Table C): 2.57 | efficacy (no fertile eggs laid) [6]: 100% | efficacy (kill of L1 larvae) [7]: 100% | efficacy (aphids killed) [2]: 90% | efficacy (beetle larvae killed) [3]: 83% | efficacy (caterpillars killed) [4]: 100%

CON=Cc1cc(C)c(NC(=O)c2cc(C(F)F)nn2-c2ncccc2Cl)c(C(=O)NC2CC2)c1 [C-34]
log p ([1]; Table C): 2.72 | efficacy (no fertile eggs laid) [6]: 100% | efficacy (kill of L1 larvae) [7]: 100% | efficacy (aphids killed) [2]: 100% | efficacy (beetle larvae killed) [3]: 100% | efficacy (caterpillars killed) [4]: 100%

COCC(C)NC(=O)c1cc(C=NOC)cc(C)c1NC(=O)c1cc(OC)nn1-c1ncccc1Cl (stereo not drawn) [C-41]
log p ([1]; Table C): 2.51 | efficacy (aphids killed) [2]: 100% | efficacy (caterpillars killed) [4]: 100% | efficacy (spider mites killed) [5]: 90%

CON=Cc1cc(C)c(NC(=O)c2cc(CF)nn2-c2ncccc2Cl)c(C(=O)NC(C)C2CC2)c1 (stereo not drawn) [C-43]
log p ([1]; Table C): 2.96 | efficacy (aphids killed) [2]: 90% | efficacy (beetle larvae killed) [3]: 100% | efficacy (caterpillars killed) [4]: 100% | efficacy (spider mites killed) [5]: 90%

CON=Cc1cc(C)c(NC(=O)c2cc(CF)nn2-c2ncccc2Cl)c(C(=O)NC(C)(C)C)c1 [C-44]
log p ([1]; Table C): 3.00 | efficacy (aphids killed) [2]: 100% | efficacy (beetle larvae killed) [3]: 100% | efficacy (caterpillars killed) [4]: 100% | efficacy (spider mites killed) [5]: 90%

CNC(=O)c1cc(C=NOC)cc(C)c1NC(=O)c1cc(CF)nn1-c1ncccc1Cl [C-45]
log p ([1]; Table C): 2.14 | efficacy (aphids killed) [2]: 100% | efficacy (beetle larvae killed) [3]: 100% | efficacy (caterpillars killed) [4]: 100% | efficacy (spider mites killed) [5]: 100%

CCNC(=O)c1cc(C=NOC)cc(C)c1NC(=O)c1cc(OCC(F)F)nn1-c1ncccc1Cl [C-46]
log p ([1]; Table C): 2.81 | efficacy (no fertile eggs laid) [6]: 100% | efficacy (kill of L1 larvae) [7]: 100% | efficacy (aphids killed) [2]: 100% | efficacy (caterpillars killed) [4]: 100%

COCC(C)NC(=O)c1cc(C=NOC)cc(C)c1NC(=O)c1cc(C(F)F)nn1-c1ncccc1Cl (stereo not drawn) [C-60]
log p ([1]; Table C): 2.84 | efficacy (aphids killed) [2]: 100% | efficacy (beetle larvae killed) [3]: 100% | efficacy (caterpillars killed) [4]: 100%

C#CCNC(=O)c1cc(C=NOC)cc(C)c1NC(=O)c1cc(C(F)F)nn1-c1ncccc1Cl [C-62]
log p ([1]; Table C): 2.69 | efficacy (aphids killed) [2]: 90% | efficacy (beetle larvae killed) [3]: 100% | efficacy (caterpillars killed) [4]: 100%

CCNC(=O)c1cc(C=NOC)cc(C)c1NC(=O)c1cc(C(F)F)nn1-c1ncccc1Cl [C-63]
log p ([1]; Table C): 2.71 | efficacy (aphids killed) [2]: 100% | efficacy (beetle larvae killed) [3]: 100% | efficacy (caterpillars killed) [4]: 100%
